Source: patent publication EP1513525B1, “USE OF MGLUR5 ANTAGONISTS FOR THE TREATMENT OF GERD” (AstraZeneca AB, priority 2002, dated 2003)

Legend:
TLESRs [1] = test: Screening for compounds active against TLESR, standard model (nutrient meal followed by air insufflation at 40 ml/min); format: in vivo, Adult Labrador retrievers
Method: (§1) Adult Labrador retrievers of both genders, trained to stand in a Pavlov sling, are used. Mucosa-to-skin esophagostomies are formed and the dogs are allowed to recover completely before any experiments are done.
(§2) In brief, after fasting for approximately 17 h with free supply of water, a multilumen sleeve/sidehole assembly (Dentsleeve, Adelaide, South Australia) is introduced through the esophagostomy to measure gastric, lower esophageal sphincter (LES) and esophageal pressures. The assembly is perfused with water using a low-compliance manometric perfusion pump (Dentsleeve, Adelaide, South Australia). An air-perfused tube is passed in the oral direction to measure swallows, and an antimony electrode monitored pH, 3 cm above the LES. All signals are amplified and acquired on a personal computer at 10 Hz.
When a baseline measurement free from fasting gastric/LES phase III motor activity has been obtained, placebo (0.9% NaCl) or test compound is administered intravenously (i.v., 0.5 ml/kg) in a foreleg vein. Ten min after i.v. administration, a nutrient meal (10% peptone, 5% D-glucose, 5% Intralipid, pH 3.0) is infused into the stomach through the central lumen of the assembly at 100 ml/min to a final volume of 30 ml/kg. Immediately following the meal, air is insufflated at 40 ml/min. In an alternative model (Barostat model), the infusion of the nutrient meal is followed by air infusion at a rate of 500 ml/min until a intragastric pressure of 10±1 mmHg is obtained. The pressure is then maintained at this level throughout the experiment using the infusion pump for further air infusion or for venting air from the stomach. The experimental time from start of nutrient infusion to end of air insufflation is 45 min. The procedure has been validated as a reliable means of triggering TLESRs.
TLESRs is defined as a decrease in lower esophageal sphincter pressure (with reference to intragastric pressure) at a rate of >1 mmHg/s. The relaxation should not be preceded by a pharyngeal signal ≤2s before its onset in which case the relaxation is classified as swallow-induced. The pressure difference between the LES and the stomach should be less than 2 mmHg, and the duration of the complete relaxation longer than 1 s.
2-Methyl-6-(phenylethynyl)-pyridine (MPEP) was prepared according to the procedure described by K. Sonogashira et al. in Tetrahedron Lett. (1975), 50, 4467-4470. After purification by column chromatography (SiO2), the hydrochloride salt (the hydrochloride salt of 2-methyl-6-(phenylethynyl)-pyridine is also commercially available from e.g. Tocris) was prepared by introducing HCl(g) to an ice-cooled Et2O-solution of the product. The hydrochloride salt of MPEP was tested on adult Labrador retrievers of both genders in accordance with the test model described above.
Inhibition of the number of TLESRs was calculated with regard to the five preceding control experiments for each dog, and the results as set out in Tables 1.1 and 1.2 below were achieved. Table 1.1 - Standard model

TLESRs [2] = test: Screening for compounds active against TLESR, Barostat model (nutrient meal followed by air infusion, intragastric pressure held at 10±1 mmHg); format: in vivo, Adult Labrador retrievers; conditions: inhibition of the number of TLESRs, infusion during 55 min
Method: as §1, §2
Ten min after i.v. administration, a nutrient meal (10% peptone, 5% D-glucose, 5% Intralipid, pH 3.0) is infused into the stomach through the central lumen of the assembly at 100 ml/min to a final volume of 30 ml/kg. Immediately following the meal, air is insufflated at 40 ml/min. In an alternative model (Barostat model), the infusion of the nutrient meal is followed by air infusion at a rate of 500 ml/min until a intragastric pressure of 10±1 mmHg is obtained. […]

SMILES	% INHIBITION ± SEM (N) (TLESRs [1]; inhibition of the number of TLESRs vs five preceding control experiments per dog, dose 1.4 µmol/kg i.v., N=4 dogs)	% INHIBITION ± SEM (N) (TLESRs [1]; inhibition of the number of TLESRs vs five preceding control experiments per dog, dose 4.3 µmol/kg i.v., N=4 dogs)	% INHIBITION ± SEM (N) (TLESRs [1]; inhibition of the number of TLESRs vs five preceding control experiments per dog, dose 8.7 µmol/kg i.v., N=3 dogs)	% INHIBITION ± SEM (N) (TLESRs [1]; inhibition of the number of TLESRs, dose 4 µmol/kg/h, infusion during 60 min, N=4 dogs)	% INHIBITION ± SEM (N) (TLESRs [1]; inhibition of the number of TLESRs, dose 6 µmol/kg/h, infusion during 60 min, N=2 dogs)	% INHIBITION ± SEM (N) (TLESRs [2]; dose 1.1 µmol/kg/h, N=4 dogs)	% INHIBITION ± SEM (N) (TLESRs [2]; dose 2.2 µmol/kg/h, N=2 dogs)
Cc1cccc(C#Cc2ccccc2)n1 [MPEP, 2-Methyl-6-(phenylethynyl)-pyridine]	30 ± 5 (4) %	57 ± 8 (4) %	59 ± 11 (3) %	32 ± 13 (4) %	43 ± 3 (2) %		
COCc1cc(C#N)cc(-c2nc(-c3ccc(F)cn3)no2)c1 [3-[3-(5-fluoropyridin-2-yl)-1,2,4-oxadiazol-5-yl]-5-(methoxymethyl)benzonitrile]						58 ± 11 (4) %	83 ± 17 (2) %
